Organism: Rattus norvegicus
Experiment: Open TG-GATES - Regimen: Daily Repeat
Assay type: toxicity, organism-based, Sprague-Dawley
Design: regimen Daily Repeat, gender Male, age 6 weeks
Settings: in vivo, po, 1000 mg/kg, route gavage, dose level High; for APTT / Bas / Eos / Fbg / Hb / Ht / Lym / MCH / MCHC / MCV / Mono / Neu / PT / Plat / RBC / Ret / WBC: tissue Blood; for KIDNEY_L / KIDNEY_R / KIDNEY_TOTAL: tissue Kidney; for LIVER: tissue Liver; for A/G / ALP / ALT / AST / BUN / CRE / Ca / Cl / DBIL / GLC / IP / K / LDH / Na / PL / RALB / TBIL / TC / TG / TP / gamma-GTP: tissue Plasma

Cc1nnc2n1-c1ccc(Cl)cc1C(c1ccccc1Cl)=NC2 [TRIAZOLAM]
TERMINAL_BW (72 h, time 3 day): 221.7 g
APTT (72 h, time 3 day): 18.3 s
Bas (72 h, time 3 day): 0.2%
Eos (72 h, time 3 day): 1%
Fbg (72 h, time 3 day): 278.6 mg/dL
Hb (72 h, time 3 day): 13.8 g/dL
Ht (72 h, time 3 day): 41.1%
Lym (72 h, time 3 day): 78.2%
MCH (72 h, time 3 day): 21.3 pg
MCHC (72 h, time 3 day): 33.6%
MCV (72 h, time 3 day): 63.4 fL
Mono (72 h, time 3 day): 3.6%
Neu (72 h, time 3 day): 16%
PT (72 h, time 3 day): 13 s
Plat (72 h, time 3 day): 124.4 x10_4/uL
RBC (72 h, time 3 day): 650.2 x10_4/ul
Ret (72 h, time 3 day): 6.4%
WBC (72 h, time 3 day): 105.8 x10_2/uL
KIDNEY_L (72 h, time 3 day): 1 g
KIDNEY_R (72 h, time 3 day): 1 g
KIDNEY_TOTAL (72 h, time 3 day): 1.9 g
LIVER (72 h, time 3 day): 10.9 g
A/G (72 h, time 3 day): 0.9
ALP (72 h, time 3 day): 1527.4 IU/L
ALT (72 h, time 3 day): 56 IU/L
AST (72 h, time 3 day): 67.4 IU/L
BUN (72 h, time 3 day): 14.4 mg/dL
CRE (72 h, time 3 day): 0.2 mg/dL
Ca (72 h, time 3 day): 11.5 mg/dL
Cl (72 h, time 3 day): 102.8 meq/L
DBIL (72 h, time 3 day): 0.016 mg/dL
GLC (72 h, time 3 day): 167 mg/dL
IP (72 h, time 3 day): 9.1 mg/dL
K (72 h, time 3 day): 4.2 meq/L
LDH (72 h, time 3 day): 98.4 IU/L
Na (72 h, time 3 day): 141.6 meq/L
PL (72 h, time 3 day): 157 mg/dL
RALB (72 h, time 3 day): 2.6 g/dL
TBIL (72 h, time 3 day): 0.048 mg/dL
TC (72 h, time 3 day): 81.2 mg/dL
TG (72 h, time 3 day): 84.2 mg/dL
TP (72 h, time 3 day): 5.6 g/dL
gamma-GTP (72 h, time 3 day): 1 IU/L
TERMINAL_BW ([…], time 7 day): 254.6 g
TERMINAL_BW ([…], time 14 day): 312.6 g
TERMINAL_BW ([…], time 28 day): 383.1 g
APTT ([…], time 7 day): 17.8 s
Bas ([…], time 7 day): 0%
Eos ([…], time 7 day): 1%
Fbg ([…], time 7 day): 282.6 mg/dL
Hb ([…], time 7 day): 13.7 g/dL
Ht ([…], time 7 day): 40.7%
Lym ([…], time 7 day): 74%
MCH ([…], time 7 day): 20.9 pg
MCHC ([…], time 7 day): 33.6%
MCV ([…], time 7 day): 62.1 fL
Mono ([…], time 7 day): 2.6%
Neu ([…], time 7 day): 21.6%
PT ([…], time 7 day): 12.8 s
Plat ([…], time 7 day): 129.1 x10_4/uL
RBC ([…], time 7 day): 656.2 x10_4/ul
Ret ([…], time 7 day): 5.5%
WBC ([…], time 7 day): 113.3 x10_2/uL
APTT ([…], time 14 day): 18.3 s
Bas ([…], time 14 day): 0.4%
Eos ([…], time 14 day): 1%
Fbg ([…], time 14 day): 249.6 mg/dL
Hb ([…], time 14 day): 14.2 g/dL
Ht ([…], time 14 day): 43.5%
Lym ([…], time 14 day): 78.6%
MCH ([…], time 14 day): 20 pg
MCHC ([…], time 14 day): 32.6%
MCV ([…], time 14 day): 61.2 fL
Mono ([…], time 14 day): 2.6%
Neu ([…], time 14 day): 16.8%
PT ([…], time 14 day): 13.3 s
Plat ([…], time 14 day): 123.4 x10_4/uL
RBC ([…], time 14 day): 711.4 x10_4/ul
Ret ([…], time 14 day): 5.3%
WBC ([…], time 14 day): 135.4 x10_2/uL
APTT ([…], time 28 day): 18.3 s
Bas ([…], time 28 day): 0.2%
Eos ([…], time 28 day): 1.4%
Fbg ([…], time 28 day): 273 mg/dL
Hb ([…], time 28 day): 15.3 g/dL
Ht ([…], time 28 day): 45.2%
Lym ([…], time 28 day): 76.2%
MCH ([…], time 28 day): 19.7 pg
MCHC ([…], time 28 day): 33.9%
MCV ([…], time 28 day): 58.2 fL
Mono ([…], time 28 day): 2.2%
Neu ([…], time 28 day): 18.4%
PT ([…], time 28 day): 13.2 s
Plat ([…], time 28 day): 112.9 x10_4/uL
RBC ([…], time 28 day): 776.4 x10_4/ul
Ret ([…], time 28 day): 2.4%
WBC ([…], time 28 day): 103.3 x10_2/uL
KIDNEY_L ([…], time 7 day): 1.1 g
KIDNEY_R ([…], time 7 day): 1.1 g
KIDNEY_TOTAL ([…], time 7 day): 2.3 g
KIDNEY_L ([…], time 14 day): 1.3 g
KIDNEY_R ([…], time 14 day): 1.3 g
KIDNEY_TOTAL ([…], time 14 day): 2.5 g
KIDNEY_L ([…], time 28 day): 1.4 g
KIDNEY_R ([…], time 28 day): 1.4 g
KIDNEY_TOTAL ([…], time 28 day): 2.8 g
LIVER ([…], time 7 day): 12.4 g
LIVER ([…], time 14 day): 14.2 g
LIVER ([…], time 28 day): 15.2 g
A/G ([…], time 7 day): 0.9
ALP ([…], time 7 day): 1848.4 IU/L
ALT ([…], time 7 day): 47.2 IU/L
AST ([…], time 7 day): 67.2 IU/L
BUN ([…], time 7 day): 15.8 mg/dL
CRE ([…], time 7 day): 0.2 mg/dL
Ca ([…], time 7 day): 11.2 mg/dL
Cl ([…], time 7 day): 105 meq/L
DBIL ([…], time 7 day): 0.014 mg/dL
GLC ([…], time 7 day): 176.6 mg/dL
IP ([…], time 7 day): 7.4 mg/dL
K ([…], time 7 day): 4.7 meq/L
LDH ([…], time 7 day): 86.2 IU/L
Na ([…], time 7 day): 142 meq/L
PL ([…], time 7 day): 160.8 mg/dL
RALB ([…], time 7 day): 2.7 g/dL
TBIL ([…], time 7 day): 0.032 mg/dL
TC ([…], time 7 day): 78.6 mg/dL
TG ([…], time 7 day): 108.2 mg/dL
TP ([…], time 7 day): 5.7 g/dL
gamma-GTP ([…], time 7 day): 1 IU/L
A/G ([…], time 14 day): 0.9
ALP ([…], time 14 day): 1576.6 IU/L
ALT ([…], time 14 day): 48 IU/L
AST ([…], time 14 day): 71.6 IU/L
BUN ([…], time 14 day): 17.8 mg/dL
CRE ([…], time 14 day): 0.2 mg/dL
Ca ([…], time 14 day): 10.8 mg/dL
Cl ([…], time 14 day): 103.6 meq/L
DBIL ([…], time 14 day): 0.01 mg/dL
GLC ([…], time 14 day): 188.4 mg/dL
IP ([…], time 14 day): 7.7 mg/dL
K ([…], time 14 day): 4.1 meq/L
LDH ([…], time 14 day): 112.2 IU/L
Na ([…], time 14 day): 141.8 meq/L
PL ([…], time 14 day): 157.6 mg/dL
RALB ([…], time 14 day): 2.6 g/dL
TBIL ([…], time 14 day): 0.036 mg/dL
TC ([…], time 14 day): 74.8 mg/dL
TG ([…], time 14 day): 127.4 mg/dL
TP ([…], time 14 day): 5.7 g/dL
gamma-GTP ([…], time 14 day): 1 IU/L
A/G ([…], time 28 day): 0.8
ALP ([…], time 28 day): 950 IU/L
ALT ([…], time 28 day): 41.2 IU/L
AST ([…], time 28 day): 68.8 IU/L
BUN ([…], time 28 day): 15.4 mg/dL
CRE ([…], time 28 day): 0.2 mg/dL
Ca ([…], time 28 day): 10.5 mg/dL
Cl ([…], time 28 day): 105.2 meq/L
DBIL ([…], time 28 day): 0.002 mg/dL
GLC ([…], time 28 day): 181 mg/dL
IP ([…], time 28 day): 6 mg/dL
K ([…], time 28 day): 4 meq/L
LDH ([…], time 28 day): 75 IU/L
Na ([…], time 28 day): 142.2 meq/L
PL ([…], time 28 day): 159.8 mg/dL
RALB ([…], time 28 day): 2.8 g/dL
TBIL ([…], time 28 day): 0.046 mg/dL
TC ([…], time 28 day): 79.8 mg/dL
TG ([…], time 28 day): 92 mg/dL
TP ([…], time 28 day): 6.1 g/dL
gamma-GTP ([…], time 28 day): 1.2 IU/L

From ChEMBL document CHEMBL3885861, “Open TG-GATES”
